Assay type in all cases: biochemical
In one assay the target is T1, JAK1 (Homo sapiens, UniProt P23458).
T1 construct: purchased Carna Biosciences 08-144
Briefly: Functional assay of protein kinases (Caliper mobility shift), JAK1. The conditions noted are these: ATP 100 μM, 150 min incubation. The protocol: (§1) Functional Assays of Protein Kinases
(§2) The functional assays of protein kinases were carried out in 384-well plates using a final volume of 30 μl. […] The reaction was reads in a “Caliper EzReader LabChip 3000” (Caliper, Hopkinton, Mass.) reader, based on electrophoretic mobility of the fluorescent substrate and the phosphorylated product.
(§3) The inhibition percentages were calculated by comparison between control reactions, for 100% of inhibition and reactions with only DMSO for 0% of inhibition.

The target of another assay is T2, Human MLK3 (Homo sapiens, UniProt Q16584).
T2 construct: purchased Reaction Biology MLK3
T2 sequence (Q16584 whole entry): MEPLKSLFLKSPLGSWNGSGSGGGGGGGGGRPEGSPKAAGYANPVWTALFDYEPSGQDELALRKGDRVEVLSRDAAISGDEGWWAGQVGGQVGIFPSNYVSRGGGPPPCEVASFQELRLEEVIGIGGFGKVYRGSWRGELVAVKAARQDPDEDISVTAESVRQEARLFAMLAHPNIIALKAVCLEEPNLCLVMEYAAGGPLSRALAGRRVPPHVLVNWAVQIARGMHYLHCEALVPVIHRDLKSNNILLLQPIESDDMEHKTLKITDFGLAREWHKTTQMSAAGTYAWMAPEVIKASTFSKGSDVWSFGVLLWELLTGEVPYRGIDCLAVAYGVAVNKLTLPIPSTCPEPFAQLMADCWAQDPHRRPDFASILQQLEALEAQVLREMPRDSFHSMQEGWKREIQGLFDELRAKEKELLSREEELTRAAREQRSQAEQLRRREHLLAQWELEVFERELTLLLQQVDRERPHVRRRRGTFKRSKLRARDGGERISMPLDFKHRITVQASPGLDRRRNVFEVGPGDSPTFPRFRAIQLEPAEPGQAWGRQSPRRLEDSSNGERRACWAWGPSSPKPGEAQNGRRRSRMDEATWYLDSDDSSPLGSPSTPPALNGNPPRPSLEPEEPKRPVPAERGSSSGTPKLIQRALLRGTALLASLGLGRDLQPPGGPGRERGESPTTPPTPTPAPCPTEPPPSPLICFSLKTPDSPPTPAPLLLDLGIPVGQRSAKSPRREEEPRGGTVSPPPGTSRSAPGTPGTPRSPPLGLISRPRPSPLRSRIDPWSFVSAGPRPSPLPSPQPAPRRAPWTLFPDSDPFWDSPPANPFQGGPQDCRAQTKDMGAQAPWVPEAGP
Briefly: MLK3 activity inhibition test (Reaction Biology kit, 33P ATP filter assay). The conditions noted are these: MBP 10 μM, ATP 10 μM. The protocol: MLK3 Activity Inhibition Test
Activity test was carried out using the kit from Reaction Biology (CAT #: MLK3). The test uses enzyme Human MLK3 and substrates are MBP (Myelin Basic Protein, HGNC ID:6925) 10 μM and ATP 10 μM. Other reagents are the following: Base Reaction buffer; 20 mM Hepes (pH 7.5), 10 mM MgCl2, 1 mM EGTA, 0.02% Brij35, 0.02 mg/ml BSA, 0.1 mM Na3VO4, 2 mM DTT, 1% DMSO.
The reaction was carried out following the instructions of manufacturer. Briefly, kinase/substrate pairs were prepared in reaction buffer. Compounds were delivered into the reaction, followed 20 minutes later by addition of a mixture of ATP (Sigma, St. Louis Mo.) and ^33P ATP (Perkin Elmer, Waltham Mass.) to a final concentration of 10 μM. Reactions were carried out at room temperature for 120 min, followed by spotting of the reactions onto P81 ion exchange filter paper (Whatman Inc., Piscataway, N.J.). Unbound phosphate was removed by extensive washing of filters in 0.75% phosphoric acid. […] IC50 values and curve fits were obtained using Prism (GraphPad Software).

The next assay deals with T3, JAK2 (Homo sapiens, UniProt O60674).
T3 construct: purchased Carna Biosciences 08-045
T3 sequence (O60674 826-1132 limits assumed): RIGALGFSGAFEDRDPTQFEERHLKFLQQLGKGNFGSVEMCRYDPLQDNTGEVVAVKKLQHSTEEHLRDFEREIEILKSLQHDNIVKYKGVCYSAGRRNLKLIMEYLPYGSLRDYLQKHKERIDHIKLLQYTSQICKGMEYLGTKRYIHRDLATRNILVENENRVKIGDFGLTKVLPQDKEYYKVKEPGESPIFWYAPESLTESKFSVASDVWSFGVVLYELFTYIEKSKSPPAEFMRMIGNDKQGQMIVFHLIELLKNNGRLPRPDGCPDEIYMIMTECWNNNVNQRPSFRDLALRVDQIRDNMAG
Briefly: Functional assay of protein kinases (Caliper mobility shift), JAK2. Particulars: ATP 300 μM, 30 min incubation. The protocol:
as §1, §2, §3

In another assay the target is T4, TYK2 (Homo sapiens, UniProt P29597).
T4 construct: purchased Carna Biosciences 08-147
T4 sequence (P29597 871-1187 limits assumed): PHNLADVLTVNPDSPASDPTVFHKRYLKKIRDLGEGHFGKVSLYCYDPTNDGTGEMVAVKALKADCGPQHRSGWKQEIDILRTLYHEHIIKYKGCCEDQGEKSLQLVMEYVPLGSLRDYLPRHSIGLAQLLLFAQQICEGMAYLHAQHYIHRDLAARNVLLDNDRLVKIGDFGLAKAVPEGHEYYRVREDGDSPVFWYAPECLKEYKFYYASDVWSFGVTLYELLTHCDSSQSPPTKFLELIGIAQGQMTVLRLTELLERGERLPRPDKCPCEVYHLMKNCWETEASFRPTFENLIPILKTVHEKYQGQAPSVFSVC
Briefly: Functional assay of protein kinases (Caliper mobility shift), TYK2. The conditions noted are these: ATP 20 μM, 45 min incubation. On the procedure: as §1, §2, §3

Another assay has as its target T5, JAK3 (Homo sapiens, UniProt P52333).
T5 construct: purchased Carna Biosciences 08-046
Nature of the assay: Functional assay of protein kinases (Caliper mobility shift), JAK3. The conditions noted are these: ATP 8 μM, 30 min incubation. On the procedure:
as §1, §2, §3

Usually IC50 stands for the midpoint of a concentration-inhibition curve.

T1 sequence (P23458 850-1154 limits assumed): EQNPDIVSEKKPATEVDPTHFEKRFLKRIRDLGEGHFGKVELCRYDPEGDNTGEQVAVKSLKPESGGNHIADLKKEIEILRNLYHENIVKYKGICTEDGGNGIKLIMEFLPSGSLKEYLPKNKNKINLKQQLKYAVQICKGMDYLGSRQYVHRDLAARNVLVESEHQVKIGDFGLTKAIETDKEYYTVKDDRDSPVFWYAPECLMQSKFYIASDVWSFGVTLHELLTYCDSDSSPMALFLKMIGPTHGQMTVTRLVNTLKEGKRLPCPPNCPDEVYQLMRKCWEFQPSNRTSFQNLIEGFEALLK
T5 sequence (P52333 795-1124 limits assumed): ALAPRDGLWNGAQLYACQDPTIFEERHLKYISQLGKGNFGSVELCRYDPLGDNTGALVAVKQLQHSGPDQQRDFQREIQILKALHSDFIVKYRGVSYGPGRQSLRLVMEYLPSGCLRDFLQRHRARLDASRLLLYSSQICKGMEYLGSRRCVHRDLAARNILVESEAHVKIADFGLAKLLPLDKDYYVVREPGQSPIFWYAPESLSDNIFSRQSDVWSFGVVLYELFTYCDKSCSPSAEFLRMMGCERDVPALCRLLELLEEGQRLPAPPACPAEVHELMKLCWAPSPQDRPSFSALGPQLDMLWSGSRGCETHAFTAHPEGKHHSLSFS

Regarding `Cc1cc(C(=O)NC2CCC(C(=O)O)CC2)c2nc3ccccc3c(=O)n2c1` (centres unmarked) [Example 10, 4-(8-methyl-11-oxo-11H-pyrido[2,1-b]quinazoline-6-carboxamido)cyclohexane-1-carboxylic acid], the IC50 on JAK1 is no less than 1000 nM; against Human MLK3, no less than 1000 nM; on JAK2 it was no less than 1000 nM; at TYK2, less than 100 nM; at JAK3, 100 to 1000 nM.

For `COc1ccc2nc3c(C(=O)NC4CCC(C(=O)O)CC4)cccn3c(=O)c2c1` (centres unmarked) [Example 20, 4-(2-methoxy-11-oxo-11H-pyrido[2,1-b]quinazoline-6-carboxamido)cyclohexane-1-carboxylic acid], the IC50 at Human MLK3 was less than 100 nM; at TYK2, 100 to 1000 nM; on JAK3 it was less than 100 nM.

Take `O=C(NC12CCC(C(=O)O)(CC1)CC2)c1cccn2c(=O)c3cc(C4CC4)ccc3nc12` [Example 6, 4-(2-cyclopropyl-11-oxo-11H-pyrido[2,1-b]quinazoline-6-carboxamido)bicyclo[2.2.2]octane-1-carboxyli acid]: the IC50 on JAK1 is no less than 1000 nM; on Human MLK3, less than 100 nM; on JAK2, no less than 1000 nM; on TYK2, 100 to 1000 nM; at JAK3, 100 to 1000 nM.

Take `O=C(N[C@H]1CC[C@@H](C(=O)O)CC1)c1cccn2c(=O)c3cc(-c4ccc(F)cc4)ccc3nc12` [Example 16, (1S,4S)-4-(2-(4-fluorophenyl)-11-oxo-11H-pyrido[2,1-b]quinazoline-6-carboxamido)cyclohexane-1-carboxylic acid]: the IC50 on JAK1 was no less than 1000 nM; against Human MLK3, less than 100 nM; on JAK2 it was no less than 1000 nM; at TYK2 it was less than 100 nM; on JAK3, less than 100 nM.

Regarding `O=C(N[C@H]1CC[C@@H](C(=O)O)CC1)c1cccn2c(=O)c3cc(-c4ccncc4)ccc3nc12` [Example 17, (1S,4S)-4-(11-oxo-2-(pyridin-4-yl)-11H-pyrido[2,1-b]quinazoline-6-carboxamido)cyclohexane-1-carboxylic acid], the IC50 at JAK1 is no less than 1000 nM; on Human MLK3, less than 100 nM; at JAK2, no less than 1000 nM; at TYK2, less than 100 nM; at JAK3, less than 100 nM.

Regarding `N#Cc1ccc2nc3c(C(=O)NC4CCC(C(=O)O)CC4)cccn3c(=O)c2c1` (centres unmarked) [Example 21, 4-(2-cyano-11-oxo-11H-pyrido[2,1-b]quinazoline-6-carboxamido)cyclohexane-1-carboxylic add], the IC50 on JAK1 was no less than 1000 nM; against Human MLK3, no less than 1000 nM; on JAK2, no less than 1000 nM; at TYK2, no less than 1000 nM; on JAK3 it was 100 to 1000 nM.

Take `O=C(NC1CCC(C(=O)O)CC1)c1cccn2c(=O)c3cc(Br)ccc3nc12` (centres unmarked) [Example 24, 4-(2-bromo-11-oxo-11H-pyrido[2,1-b]quinazoline-6-carboxamido)cyclohexane-1-carboxylic acid]: the IC50 is no less than 1000 nM at JAK1, no less than 1000 nM on JAK2, 100 to 1000 nM on TYK2 and 100 to 1000 nM at JAK3.

In the case of `Cc1cc(C(=O)N[C@H]2CC[C@@H](C(=O)O)CC2)c2nc3ccccc3c(=O)n2c1` [Example 11, (1S,4S)-4-(8-methyl-11-oxo-11H-pyrido[2,1-b]quinazoline-6-carboxamido)cyclohexane-1-carboxylic acid], the IC50 is no less than 1000 nM at JAK1, no less than 1000 nM at JAK2, 100 to 1000 nM on TYK2 and no less than 1000 nM at JAK3.

Regarding `O=C(N[C@H]1CC[C@@H](C(=O)O)CC1)c1cccn2c(=O)c3cc(-c4ccccc4)ccc3nc12` [Example 15, (1S,4S)-4-(11-oxo-2-phenyl-11H-pyrido[2,1-b]quinazoline-6-carboxamido)cyclohexane-1-carboxylic acid], the IC50 on JAK1 is no less than 1000 nM; on JAK2, no less than 1000 nM; on TYK2, less than 100 nM; on JAK3, less than 100 nM.

As for `O=C(N[C@H]1CC[C@@H](C(=O)O)CC1)c1cccn2c(=O)c3ccccc3nc12` [Example 13, (1S,4S)-4-(11-oxo-11H-pyrido[2,1-b]quinazoline-6-carboxamido)cyclohexane-1-carboxylic add], the IC50 at JAK1 is no less than 1000 nM; on Human MLK3, 100 to 1000 nM; on JAK2, no less than 1000 nM; on TYK2, 100 to 1000 nM; on JAK3, 100 to 1000 nM.

Take `O=C(N[C@H]1CC[C@@H](C(=O)O)CC1)c1cccn2c(=O)c3cc(C4CC4)ccc3nc12` [Example 3, (1S,4S)-4-(2-cyclopropyl-11-oxo-11H-pyrido[2,1-b]quinazoline-6-carboxamido)cyclohexane-1-carboxylic acid]: the IC50 on JAK1 was no less than 1000 nM; against Human MLK3, less than 100 nM; at JAK2, no less than 1000 nM; on TYK2 it was less than 100 nM; on JAK3, less than 100 nM.

Turning to `O=C(NC1CCC(C(=O)O)CC1)c1cccn2c(=O)c3cc(C4CC4)ccc3nc12` [Example 4, (1R,4R)-4-(2-cyclopropyl-11-oxo-11H-pyrido[2,1-b]quinazoline-6-carboxamido)cyclohexane-1-carboxylic acid], the IC50 on JAK1 is no less than 1000 nM; at JAK2, no less than 1000 nM; on TYK2, no less than 1000 nM; on JAK3 it was 100 to 1000 nM.

With `O=C(N[C@H]1CC[C@@H](C(=O)O)CC1)c1cccn2c(=O)c3cc(N4CCOCC4)ccc3nc12` [Example 14, (1S,4S)-4-(2-morpholino-11-oxo-11H-pyrido[2,1-b]quinazoline-6-carboxamido)cyclohexane-1-carboxylic acid], the IC50 on JAK1 is no less than 1000 nM; at Human MLK3, less than 100 nM; on JAK2, no less than 1000 nM; on TYK2, less than 100 nM; on JAK3, less than 100 nM.

These data come from patent US20200079773A1, “CARBOXYLIC ACID DERIVATIVES OF PYRIDOQUINAZOLINES USEFUL AS PROTEIN KINASE INHIBITORS” (ONCOSTELLAE, S.L., priority 2017, published 2020).
